Assay results taken from ChEMBL document CHEMBL3758105 (J Med Chem, 2016).

Key:
[1] = system: Cynomolgus monkey; assay: Nephrotoxicity in cynomolgus monkey at 50 to 1000 mg/kg/day, po administered for 14 days; format: toxicity, organism-based, Macaca fascicularis; conditions: in vivo, 336 h
[2] = biological target: T1, Cytochrome P450 1A2 (Homo sapiens, UniProt P05177); assay: Inhibition of CYP1A2 (unknown origin); format: ADME
T1 sequence (P05177 whole entry): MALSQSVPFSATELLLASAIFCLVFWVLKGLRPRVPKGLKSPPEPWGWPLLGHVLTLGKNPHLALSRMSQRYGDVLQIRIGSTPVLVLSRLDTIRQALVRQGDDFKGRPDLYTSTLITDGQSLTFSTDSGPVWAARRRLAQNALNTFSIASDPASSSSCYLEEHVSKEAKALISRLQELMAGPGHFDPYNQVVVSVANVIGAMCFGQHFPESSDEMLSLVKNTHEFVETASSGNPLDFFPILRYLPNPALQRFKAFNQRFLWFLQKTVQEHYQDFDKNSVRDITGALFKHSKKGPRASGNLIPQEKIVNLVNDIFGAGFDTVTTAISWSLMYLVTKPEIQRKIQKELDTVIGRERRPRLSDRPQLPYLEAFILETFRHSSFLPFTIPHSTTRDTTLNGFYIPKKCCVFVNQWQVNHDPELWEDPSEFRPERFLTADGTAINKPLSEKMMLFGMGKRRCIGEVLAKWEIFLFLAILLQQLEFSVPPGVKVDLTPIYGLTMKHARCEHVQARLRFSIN

[3] = biological target: Collagenase 3 (Homo sapiens, UniProt P45452); assay: Inhibition of full length human recombinant MMP13 using MCA-Arg-Pro-Leu-Gly-Leu-Dpa-Ala-Arg-Glu-Arg-NH2 as substrate preincubated for 60 mins followed by substrate addition by fluorescence assay
[4] = Intrinsic clearance in human liver microsomes measured over 40 mins by HPLC/MS analysis; format: ADME; conditions: read-out: CLH
[5] = Clearance in Sprague-Dawley rat at 1 mg/kg, iv administered as bolus dose by LC-MS/MS analysis; format: ADME, organism-based; conditions: in vivo
[6] = Oral bioavailability in Sprague-Dawley rat at 1 mg/kg; format: ADME, organism-based; conditions: in vivo
[7] = biological target: Cytochrome P450 2D6 (Homo sapiens, UniProt P10635); assay: Inhibition of CYP2D6 (unknown origin); format: ADME
Cytochrome P450 2D6, sequence (P10635 whole entry): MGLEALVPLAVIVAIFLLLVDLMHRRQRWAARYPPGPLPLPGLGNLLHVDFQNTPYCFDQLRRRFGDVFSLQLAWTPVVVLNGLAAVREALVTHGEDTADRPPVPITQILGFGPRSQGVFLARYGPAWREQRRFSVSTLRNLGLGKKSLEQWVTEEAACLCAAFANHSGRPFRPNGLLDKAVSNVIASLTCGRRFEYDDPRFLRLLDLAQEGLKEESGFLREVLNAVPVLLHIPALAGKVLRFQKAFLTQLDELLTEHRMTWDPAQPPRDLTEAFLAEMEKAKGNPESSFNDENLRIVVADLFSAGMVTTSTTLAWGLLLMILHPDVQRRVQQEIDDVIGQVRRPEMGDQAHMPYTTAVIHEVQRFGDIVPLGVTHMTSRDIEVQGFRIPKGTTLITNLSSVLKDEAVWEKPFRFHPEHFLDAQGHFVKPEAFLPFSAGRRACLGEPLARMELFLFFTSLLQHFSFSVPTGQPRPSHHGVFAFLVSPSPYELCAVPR

[8] = biological target: Cytochrome P450 3A4 (Homo sapiens, UniProt P08684); assay: Inhibition of CYP3A4 (unknown origin); format: ADME
Cytochrome P450 3A4, sequence (P08684 whole entry): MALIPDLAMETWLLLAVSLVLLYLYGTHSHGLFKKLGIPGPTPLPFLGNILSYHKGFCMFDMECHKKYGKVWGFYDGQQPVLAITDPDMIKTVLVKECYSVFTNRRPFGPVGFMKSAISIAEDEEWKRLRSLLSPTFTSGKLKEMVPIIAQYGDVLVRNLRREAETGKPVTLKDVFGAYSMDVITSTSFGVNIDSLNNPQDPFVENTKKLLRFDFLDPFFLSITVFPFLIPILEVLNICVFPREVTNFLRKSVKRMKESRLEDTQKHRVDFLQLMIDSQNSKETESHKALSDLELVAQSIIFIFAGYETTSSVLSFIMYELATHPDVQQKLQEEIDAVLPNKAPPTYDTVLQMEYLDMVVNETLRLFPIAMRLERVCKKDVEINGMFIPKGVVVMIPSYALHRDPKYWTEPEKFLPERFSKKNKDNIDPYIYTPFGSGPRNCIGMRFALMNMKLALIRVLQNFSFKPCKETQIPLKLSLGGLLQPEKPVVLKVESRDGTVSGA

[9] = Clearance in cynomolgus monkey at 1 mg/kg, po and iv; format: ADME, organism-based, Macaca fascicularis; conditions: in vivo
[10] = Oral bioavailability in cynomolgus monkey at 1 mg/kg; format: ADME, organism-based, Macaca fascicularis; conditions: in vivo
[11] = system: Rattus norvegicus; assay: Drug metabolism in Sprague-Dawley rat assessed as (2S,5S)-5-((5-(6-((4-Fluoro-3-methoxybenzyl)carbamoyl)-2-methylpyrimidin-4-yl)-2H-tetrazol-2-yl)methyl)-1,4-dioxane-2-carboxylic acid formation at 1 mg/kg, po; format: ADME, organism-based; conditions: in vivo
[12] = system: Cynomolgus monkey; assay: Drug metabolism in cynomolgus monkey assessed as (2S,5S)-5-((5-(6-((4-Fluoro-3-methoxybenzyl)carbamoyl)-2-methylpyrimidin-4-yl)-2H-tetrazol-2-yl)methyl)-1,4-dioxane-2-carboxylic acid formation at 1 mg/kg, po; format: ADME, organism-based, Macaca fascicularis; conditions: in vivo
[13] = system: Hepatocyte; assay: Drug metabolism in human hepatocytes assessed as (2S,5S)-5-((5-(6-((4-Fluoro-3-methoxybenzyl)carbamoyl)-2-methylpyrimidin-4-yl)-2H-tetrazol-2-yl)methyl)-1,4-dioxane-2-carboxylic acid formation; format: ADME, cell-based
[14] = system: Hepatocyte; assay: Drug metabolism in human hepatocytes assessed as demethylation; format: ADME, cell-based
[15] = system: Hepatocyte; assay: Drug metabolism in human hepatocytes assessed as methyl oxidation; format: ADME, cell-based
[16] = system: Hepatocyte; assay: Drug metabolism in human hepatocytes assessed as glucuronidation; format: ADME, cell-based
[17] = system: Hepatocyte; assay: Drug metabolism in human hepatocytes assessed as sulfate conjugation; format: ADME, cell-based
[18] = Drug metabolism in cynomolgus monkey hepatocytes assessed as (2S,5S)-5-((5-(6-((4-Fluoro-3-methoxybenzyl)carbamoyl)-2-methylpyrimidin-4-yl)-2H-tetrazol-2-yl)methyl)-1,4-dioxane-2-carboxylic acid formation; format: ADME, cell-based, Macaca fascicularis, Hepatocyte
[19] = Drug metabolism in cynomolgus monkey hepatocytes assessed as demethylation; format: ADME, cell-based, Macaca fascicularis, Hepatocyte
[20] = Drug metabolism in cynomolgus monkey hepatocytes assessed as methyl oxidation; format: ADME, cell-based, Macaca fascicularis, Hepatocyte
[21] = Drug metabolism in cynomolgus monkey hepatocytes assessed as glucuronidation; format: ADME, cell-based, Macaca fascicularis, Hepatocyte
[22] = Drug metabolism in cynomolgus monkey hepatocytes assessed as sulfate conjugation; format: ADME, cell-based, Macaca fascicularis, Hepatocyte
[23] = Drug metabolism in cynomolgus monkey urine assessed as (2S,5S)-5-((5-(6-((4-Fluoro-3-methoxybenzyl)carbamoyl)-2-methylpyrimidin-4-yl)-2H-tetrazol-2-yl)methyl)-1,4-dioxane-2-carboxylic acid formation; format: ADME, tissue-based, Macaca fascicularis
[24] = Drug metabolism in cynomolgus monkey urine assessed as demethylation; format: ADME, tissue-based, Macaca fascicularis
[25] = Drug metabolism in cynomolgus monkey urine assessed as methyl oxidation; format: ADME, tissue-based, Macaca fascicularis
[26] = Drug metabolism in cynomolgus monkey urine assessed as glucuronidation; format: ADME, tissue-based, Macaca fascicularis
[27] = Drug metabolism in cynomolgus monkey urine assessed as sulfate conjugation; format: ADME, Macaca fascicularis
[28] = Clearance in beagle dog at 1 mg/kg, po and iv; format: ADME, organism-based, Canis lupus familiaris; conditions: in vivo
[29] = Oral bioavailability in beagle dog at 1 mg/kg; format: ADME, organism-based, Canis lupus familiaris; conditions: in vivo
[30] = biological target: Cytochrome P450 2C9 (Homo sapiens, UniProt P11712); assay: Inhibition of CYP2C9 in human liver microsomes assessed as reduction of diclofenac metabolism after 8 mins; format: ADME
Cytochrome P450 2C9, sequence (P11712 whole entry, the tested form may be a part): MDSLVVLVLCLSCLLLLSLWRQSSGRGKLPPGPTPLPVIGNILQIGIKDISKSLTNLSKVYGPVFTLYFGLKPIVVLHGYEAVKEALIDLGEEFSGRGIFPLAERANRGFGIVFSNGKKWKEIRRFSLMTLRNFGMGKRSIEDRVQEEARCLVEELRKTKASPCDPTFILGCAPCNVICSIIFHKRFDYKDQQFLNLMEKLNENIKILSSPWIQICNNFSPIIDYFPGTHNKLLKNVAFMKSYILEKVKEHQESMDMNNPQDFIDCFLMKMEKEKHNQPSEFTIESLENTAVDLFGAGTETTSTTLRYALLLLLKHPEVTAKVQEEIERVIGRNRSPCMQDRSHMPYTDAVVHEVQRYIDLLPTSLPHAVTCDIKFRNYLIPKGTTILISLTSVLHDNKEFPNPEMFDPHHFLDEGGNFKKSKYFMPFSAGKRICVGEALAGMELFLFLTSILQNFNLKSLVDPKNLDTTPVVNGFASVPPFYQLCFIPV

[31] = biological target: Stromelysin-1 (Homo sapiens, UniProt P08254); assay: Inhibition of MMP3 (unknown origin) catalytic domain using MCA-Arg-Pro-Leu-Gly-Leu-Dpa-Ala-Arg-Glu-Arg-NH2 as substrate preincubated for 60 mins followed by substrate addition by fluorescence assay
Stromelysin-1, sequence (P08254 whole entry, the tested form may be a part): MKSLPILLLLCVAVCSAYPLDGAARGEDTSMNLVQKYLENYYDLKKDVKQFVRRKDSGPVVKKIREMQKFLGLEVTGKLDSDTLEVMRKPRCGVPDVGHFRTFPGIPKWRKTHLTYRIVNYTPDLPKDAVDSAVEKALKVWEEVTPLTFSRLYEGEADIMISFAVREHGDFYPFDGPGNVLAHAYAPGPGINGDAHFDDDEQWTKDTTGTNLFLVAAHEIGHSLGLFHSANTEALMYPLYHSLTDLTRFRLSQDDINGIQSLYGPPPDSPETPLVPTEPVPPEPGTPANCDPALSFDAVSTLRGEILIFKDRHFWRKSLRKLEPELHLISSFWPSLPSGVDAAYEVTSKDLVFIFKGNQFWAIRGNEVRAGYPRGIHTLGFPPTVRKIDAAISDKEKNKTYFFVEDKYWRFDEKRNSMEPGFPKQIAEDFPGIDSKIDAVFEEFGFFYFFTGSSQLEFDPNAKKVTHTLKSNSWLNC

COc1cc(CNC(=O)c2cc(-c3nnn(C[C@H]4CO[C@H](CO)CO4)n3)nc(C)n2)ccc1F
Activity [1]: Non-toxic | IC50 [2]: > 30 µM | Ki [3]: 0.0015 µM | microsomal CLint [4]: < 8 µL/min/mg | clearance [5]: 18.2 mL/min/kg | bioavailability [6]: 95% | IC50 [7]: > 30 µM | IC50 [8]: > 30 µM | clearance [9]: 2.1 mL/min/kg | bioavailability [10]: 88% | Drug metabolism [11]: metabolite_detected | Drug metabolism [12]: metabolite_detected | Drug metabolism [13]: metabolite_detected | Drug metabolism [14]: metabolite_detected | Drug metabolism [15]: metabolite_detected | Drug metabolism [16]: metabolite_detected | Drug metabolism [17]: metabolite_detected | Drug metabolism [18]: metabolite_detected | Drug metabolism [19]: metabolite_detected | Drug metabolism [20]: metabolite_detected | Drug metabolism [21]: metabolite_detected | Drug metabolism [22]: metabolite_detected | Drug metabolism [23]: metabolite_detected | Drug metabolism [24]: metabolite_detected | Drug metabolism [25]: metabolite_detected | Drug metabolism [26]: metabolite_detected | Drug metabolism [27]: metabolite_detected | clearance [28]: 8.2 mL/min/kg | bioavailability [29]: 64% | IC50 [30]: > 30 µM | Ki [31]: > 10 µM
